Data published in patent publication US8404859B2, “Thiazole and thiophene compounds” (Hoffmann-La Roche Inc., priority 2011, dated 2013).

Key:
sLFA-1/ICAM-1 = sLFA-1/ICAM-1 (Homo sapiens, UniProt P05107+P20701, DEL701-769); experiment: sLFA-1/ICAM-1 ELISA; conditions: sLFA-1 coated plates, 5dICAM-Fc binding, read-out: LFA/ICAM (IC50)
Protocol: (§1) sLFA-1/ICAM-1 ELISA and Mac-1/ICAM-1 ELISA
(§2) Plates were coated with either 50 μl/well of 2.0 ug/ml solution of sLFA-1 or Mac-1 receptor in divalent cation buffer (1 mM MnCI2, 0.14M NaCl, 20 mM HEPES pH 7.2) at 4° C. overnight. Two hundred fifty μl of blocking buffer (1% BSA in divalent cation buffer) was added to each well 1 hour at 37° C. Plates were washed 3 times with wash buffer (TBS/0.05% Tween-20/1 mM MnCl2). The compound to be tested was solubilized in DMSO. A series of 1:3 dilutions were performed to achieve a concentration range of 0.45 nM-3 uM. Fifty μl of binding buffer (0.5% BSA in divalent cation buffer)/1% DMSO and 50 μl of the solutions to be tested were added to the appropriate wells and incubated for 1 hour. Fifty μl of 5dICAM-Fc (27 ng/ml) was added to the appropriate wells and 50 μl binding buffer was added to non-specific binding wells and incubated for 2 hours and washed. One hundred μl of 1:4000 HRP-goat anti-huIgG was added to each well and incubated for 1 hour and washed. One hundred μl of 1:1 TMB solution was added to each well and developed for 20 min at room temperature. Color development was stopped by adding 100 μl H3PO4 to each well. Absorbance was measured at 450 nm.

Mac-1/ICAM-1 = Mac-1/ICAM-1 (Homo sapiens, UniProt P05107+P11215); experiment: Mac-1/ICAM-1 ELISA; conditions: Mac-1 receptor coated plates, 5dICAM-Fc binding
Protocol: as §1, §2

Chain of Mac-1/ICAM-1 (P05107 23-769, other chains not shown): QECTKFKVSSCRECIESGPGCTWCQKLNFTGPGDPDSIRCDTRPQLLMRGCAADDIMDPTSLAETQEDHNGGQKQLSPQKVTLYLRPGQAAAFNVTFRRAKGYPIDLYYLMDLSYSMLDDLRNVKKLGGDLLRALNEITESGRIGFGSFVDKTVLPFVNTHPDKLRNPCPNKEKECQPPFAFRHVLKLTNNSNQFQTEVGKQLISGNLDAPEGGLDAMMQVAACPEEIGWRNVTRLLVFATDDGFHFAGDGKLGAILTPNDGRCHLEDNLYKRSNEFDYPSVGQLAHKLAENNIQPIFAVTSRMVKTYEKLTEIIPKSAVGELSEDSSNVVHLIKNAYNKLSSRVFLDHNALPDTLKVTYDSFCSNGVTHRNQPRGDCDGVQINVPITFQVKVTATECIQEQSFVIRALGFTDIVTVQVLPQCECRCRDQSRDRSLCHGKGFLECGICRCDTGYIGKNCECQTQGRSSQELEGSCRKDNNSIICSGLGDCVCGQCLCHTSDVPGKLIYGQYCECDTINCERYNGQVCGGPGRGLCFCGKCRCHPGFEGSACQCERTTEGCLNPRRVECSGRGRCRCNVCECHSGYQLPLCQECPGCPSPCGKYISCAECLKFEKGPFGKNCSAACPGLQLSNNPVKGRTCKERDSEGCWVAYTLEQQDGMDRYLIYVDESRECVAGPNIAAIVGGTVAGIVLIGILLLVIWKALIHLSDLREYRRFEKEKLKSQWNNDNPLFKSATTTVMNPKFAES
Chain of sLFA-1/ICAM-1 (P20701 26-1090 limits assumed, stated change not applied): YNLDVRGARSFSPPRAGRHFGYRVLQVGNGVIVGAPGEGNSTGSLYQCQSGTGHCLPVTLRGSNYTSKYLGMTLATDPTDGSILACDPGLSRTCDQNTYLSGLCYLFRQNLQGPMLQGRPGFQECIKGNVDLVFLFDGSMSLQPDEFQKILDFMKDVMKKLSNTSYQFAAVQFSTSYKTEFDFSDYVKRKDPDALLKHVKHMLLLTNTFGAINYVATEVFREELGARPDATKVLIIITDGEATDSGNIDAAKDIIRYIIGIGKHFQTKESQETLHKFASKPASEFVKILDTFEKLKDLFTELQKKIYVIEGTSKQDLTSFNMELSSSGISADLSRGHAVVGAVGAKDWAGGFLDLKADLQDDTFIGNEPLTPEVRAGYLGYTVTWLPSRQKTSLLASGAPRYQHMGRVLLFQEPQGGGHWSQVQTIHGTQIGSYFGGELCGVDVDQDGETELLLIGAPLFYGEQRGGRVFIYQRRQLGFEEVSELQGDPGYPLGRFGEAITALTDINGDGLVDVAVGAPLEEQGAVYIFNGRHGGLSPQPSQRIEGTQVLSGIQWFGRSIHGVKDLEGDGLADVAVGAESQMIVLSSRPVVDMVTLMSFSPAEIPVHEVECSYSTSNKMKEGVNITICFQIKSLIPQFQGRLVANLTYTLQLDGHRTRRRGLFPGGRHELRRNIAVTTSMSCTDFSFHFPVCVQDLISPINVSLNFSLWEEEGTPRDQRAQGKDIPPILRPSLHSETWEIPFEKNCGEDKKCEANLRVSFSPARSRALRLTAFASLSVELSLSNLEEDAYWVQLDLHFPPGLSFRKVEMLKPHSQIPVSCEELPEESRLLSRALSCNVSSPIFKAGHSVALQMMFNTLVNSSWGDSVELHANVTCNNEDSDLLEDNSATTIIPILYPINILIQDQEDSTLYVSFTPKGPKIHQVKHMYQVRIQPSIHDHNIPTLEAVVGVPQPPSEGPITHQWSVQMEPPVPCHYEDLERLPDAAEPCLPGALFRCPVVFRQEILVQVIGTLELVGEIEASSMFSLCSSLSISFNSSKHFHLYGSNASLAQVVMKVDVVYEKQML
Chain of sLFA-1/ICAM-1 (P05107 23-700 limits assumed, stated change not applied): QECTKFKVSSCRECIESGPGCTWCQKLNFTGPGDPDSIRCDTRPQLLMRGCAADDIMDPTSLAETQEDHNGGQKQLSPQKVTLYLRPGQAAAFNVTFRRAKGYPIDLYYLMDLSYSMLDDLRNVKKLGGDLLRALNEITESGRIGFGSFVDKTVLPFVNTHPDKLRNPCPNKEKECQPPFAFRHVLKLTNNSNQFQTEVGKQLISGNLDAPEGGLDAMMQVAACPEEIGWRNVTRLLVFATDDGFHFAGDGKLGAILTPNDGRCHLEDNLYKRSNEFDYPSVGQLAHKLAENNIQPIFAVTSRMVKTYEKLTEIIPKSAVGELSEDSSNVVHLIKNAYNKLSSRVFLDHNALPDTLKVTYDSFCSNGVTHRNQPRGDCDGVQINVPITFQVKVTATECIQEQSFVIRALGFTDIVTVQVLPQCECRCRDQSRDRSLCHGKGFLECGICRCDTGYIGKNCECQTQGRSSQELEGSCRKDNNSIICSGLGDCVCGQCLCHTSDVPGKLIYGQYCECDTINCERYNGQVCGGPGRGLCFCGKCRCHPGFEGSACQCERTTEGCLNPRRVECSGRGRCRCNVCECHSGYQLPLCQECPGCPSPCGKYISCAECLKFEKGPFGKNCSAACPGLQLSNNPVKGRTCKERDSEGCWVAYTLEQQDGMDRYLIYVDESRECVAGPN

IC50 (sLFA-1/ICAM-1)	IC50 (Mac-1/ICAM-1)	Compound
0.035 µM	> 3 µM	Cc1cc(C(=O)NCc2cccc(O)c2)sc1C(=O)N[C@@H](CNC(=O)c1ccc2[nH]cnc2c1)C(=O)O [Example 42]
0.021 µM	0.025 µM	CCc1cc(C(=O)NCc2cccc3[nH]ncc23)sc1C(=O)N[C@@H](CNC(=O)c1cccs1)C(=O)O [Example 62, (S)-2-({3-Ethyl-5-[(1H-indazol-4-ylmethyl)-carbamoyl]-thiophene-2-carbonyl}-amino)-3-[(thiophene-2-carbonyl)-amino]-propionic acid]
0.049 µM	0.017 µM	CC(C)c1cc(C(=O)NCc2cccc3[nH]ncc23)sc1C(=O)N[C@@H](CNC(=O)c1cccs1)C(=O)O [Example 60, (S)-2-([5-[(1H-Indazol-4-ylmethyl)-carbamoyl]-3-isopropyl-thiophene-2-carbonyl]-amino)-3-[(thiophene-2-carbonyl)-amino]-propionic acid]
> 3 µM		COc1cc(C(=O)NC[C@H](NC(=O)c2sc(C(=O)NCc3cccc(O)c3)cc2C)C(=O)O)nc(OC)n1 [Example 43, (S)-3-[(2,6-dimethoxy-pyrimidine-4-carbonyl)-amino]-2-{[5-(3-hydroxy-benzylcarbamoyl)-3-methyl-thiophene-2-carbonyl]-amino}-propionic acid]
0.085 µM		Cc1cc(C(=O)NCCc2cccc(O)c2)sc1C(=O)N[C@@H](CNC(=O)c1cccs1)C(=O)O [Example 48, (S)-2-({5-[2-(3-hydroxy-phenyl)ethyl-carbamoyl]-3-methyl-thiophen-2-carbonyl}-amino)-3-[(thiophene-2-carbonyl)-amino]-propionic acid]
0.055 µM	> 3 µM	Cc1cc(C(=O)NCc2cccc(O)c2)sc1C(=O)N[C@@H](CNC(=O)c1cc(=O)[nH]c(=O)[nH]1)C(=O)O [Example 39]
0.516 µM	> 3 µM	Cc1cc(C(=O)NCc2cccc3[nH]ccc23)sc1C(=O)N[C@@H](CNC(=O)c1cccs1)C(=O)O [Example 34, (S)-2-({5-[(1H-indol-4-ylmethyl)carbamoyl]-3-methyl-thiophen-2-carbonyl}-amino)-3-[(thiophene-2-carbonyl)-amino]-propionic acid]
0.289 µM		Cc1cc(C(=O)NCc2cccc(O)c2)sc1C(=O)N[C@@H](CNC(=O)c1cccc(C(=O)O)c1)C(=O)O [Example 47, (S)-3-[(benzoic acid-3-carbonyl)-amino]-2-{[5-(3-hydroxy-benzylcarbamoyl)-3-methyl-thiophene-2-carbonyl]-amino}-propionic acid]
0.051 µM		Cc1cc(C(=O)NCc2cccc(O)c2)sc1C(=O)N[C@@H](CNC(=O)c1cccc2[nH]cnc12)C(=O)O [Example 46, (S)-3-[(1H-benzoimidazole-4-carbonyl)-amino]-2-{[5-(3-hydroxy-benzylcarbamoyl)-3-methyl-thiophene-2-carbonyl]-amino}-propionic acid]
0.017 µM		Cc1cc(C(=O)NCc2cccc(O)c2)sc1C(=O)N[C@@H](CNC(=O)c1cccc2[nH]ncc12)C(=O)O [Example 44, (S)-2-{[5-(3-hydroxy-benzylcarbamoyl)-3-methyl-thiophene-2-carbonyl]-amino}-3-[(1H-indazole-4-carbonyl)-amino]-propionic acid]
0.763 µM		Cc1cc(C(=O)NCc2cccc(O)c2)sc1C(=O)N[C@@H](CNC(=O)c1cnc(O)cn1)C(=O)O [Example 45, (S)-2-{[5-(3-hydroxy-benzylcarbamoyl)-3-methyl-thiophene-2-carbonyl]-amino}-3-[(5-hydroxy-pyrazine-2-carbonyl)-amino]-propionic acid]

Second part, the compound before the results:

Compound	IC50 (sLFA-1/ICAM-1)	IC50 (Mac-1/ICAM-1)
Cc1nc(NCCCc2cccc3[nH]ncc23)sc1C(=O)N[C@@H](CNC(=O)c1cccs1)C(=O)O [Example 17, (S)-2-([2-[3-(1H-Indazol-4-yl)-propylamino]-4-methyl-thiazole-5-carbonyl]-amino)-3-[(thiophene-2-carbonyl)-amino]-propionic acid]	0.223 µM	0.294 µM
N#Cc1cc(C(=O)NCc2cccc(O)c2)sc1C(=O)N[C@@H](CNC(=O)c1cccs1)C(=O)O [Example 65, (S)-2-{[3-Cyano-5-(3-hydroxy-benzylcarbamoyl)-thiophene-2-carbonyl]-amino}-3-[(thiophene-2-carbonyl)-amino]-propionic acid]	0.003 µM	
Cc1nc(NC(=O)Cc2cccc(O)c2)sc1C(=O)N[C@@H](CNC(=O)c1cc(F)cc(F)c1)C(=O)O [Example 1, (S)-3-(3,5-Difluoro-benzoylamino)-2-({2-[2-(3-hydroxy-phenyl)-acetylamino]-4-methyl-thiazole-5-carbonyl}-amino)-propionic acid]	0.017 µM	
Cc1nc(NCCc2cccc(O)c2)sc1C(=O)N[C@@H](CNC(=O)c1cc(O)cc(O)c1)C(=O)O [Example 12, (S)-3-(3,5-Dihydroxy-benzoylamino)-2-({2-[2-(3-hydroxy-phenyl)-ethylamino]-4-methyl-thiazole-5-carbonyl}-amino)-propionic acid]	0.013 µM	0.027 µM
Cc1nc(NC(=O)CCc2cccc(O)c2)sc1C(=O)N[C@@H](CNC(=O)c1cc(O)cc(O)c1)C(=O)O [Example 10, (S)-3-(3,5-Dihydroxy-benzoylamino)-2-({2-[3-(3-hydroxy-phenyl)-propionylamino]-4-methyl-thiazole-5-carbonyl}-amino)-propionic acid]	0.044 µM	0.02 µM
O=C(Cc1cccc(O)c1)Nc1nc(Cl)c(C(=O)N[C@@H](CNC(=O)c2cccs2)C(=O)O)s1 [Example 8, (S)-2-({4-Chloro-2-[2-(3-hydroxy-phenyl)-acetylamino]-thiazole-5-carbonyl}-amino)-3-[(thiophene-2-carbonyl)-amino]-propionic acid]	0.007 µM	0.032 µM
Cc1nc(NC(=O)Cc2cccc3[nH]ncc23)sc1C(=O)N[C@@H](CNC(=O)c1cccs1)C(=O)O [Example 14, (S)-2-{[2-(2-1H-Indazol-4-yl-acetylamino)-4-methyl-thiazole-5-carbonyl]-amino}-3-[(thiophene-2-carbonyl)-amino]-propionic acid]	0.008 µM	0.089 µM
Cc1cc(C(=O)NCc2ccc(F)c(O)c2)sc1C(=O)N[C@@H](CNC(=O)c1cccs1)C(=O)O [Example 64, (S)-2-{[5-(4-Fluoro-3-hydroxy-benzylcarbamoyl)-3-methyl-thiophene-2-carbonyl]-amino}-3-[(thiophene-2-carbonyl)-amino]-propionic acid]	0.011 µM	> 3 µM
Cc1nc(NC(=O)CCc2cccc(O)c2)sc1C(=O)N[C@@H](CNC(=O)c1cccs1)C(=O)O [Example 11, (S)-2-([2-[3-(3-Hydroxy-phenyl)-propionylamino]-4-methyl-thiazole-5-carbonyl]-amino)-3-[(thiophene-2-carbonyl)-amino]-propionic acid]	0.09 µM	
Cc1nc(NC(=O)Cc2cccc(O)c2)sc1C(=O)N[C@@H](CNC(=O)c1cc(O)cc(O)c1)C(=O)O [Example 6, (S)-3-(3,5-Dihydroxy-benzoylamino)-2-({2-[2-(3-hydroxy-phenyl)-acetylamino]-4-methyl-thiazole-5-carbonyl}-amino)-propionic acid]	0.003 µM	
N#Cc1cc(C(=O)NCc2cccc3[nH]ncc23)sc1C(=O)N[C@@H](CNC(=O)c1cc(O)cc(O)c1)C(=O)O [Example 66, (S)-2-({3-Cyano-5-[(1H-indazol-4-ylmethyl)-carbamoyl]-thiophene-2-carbonyl}-amino)-3-(3,5-dihydroxy-benzoylamino)-propionic acid]	0.041 µM	
O=C(Cc1cccc2[nH]ncc12)Nc1nc(C(F)(F)F)c(C(=O)N[C@@H](CNC(=O)c2cccs2)C(=O)O)s1 [Example 16, (S)-2-{[2-(2-1H-Indazol-4-yl-acetylamino)-4-trifluoromethyl-thiazole-5-carbonyl]-amino}-3-[(thiophene-2-carbonyl)-amino]-propionic acid]	0.017 µM	
O=C(NC[C@H](NC(=O)c1sc(C(=O)NCc2cccc(O)c2)cc1-c1ccccc1)C(=O)O)c1cccs1 [Example 53, (S)-2-{[5-(3-Hydroxy-benzylcarbamoyl)-3-phenyl-thiophene-2-carbonyl]-amino}-3-[(thiophene-2-carbonyl)-amino]-propionic acid]	1.55 µM	
Cc1nc(NC(=O)Cc2cccc(O)c2)sc1C(=O)N[C@@H](CNC(=O)c1ccccc1)C(=O)O [Example 4, (S)-3-Benzoylamino-2-([2-[2-(3-hydroxy-phenyl)-acetylamino]-4-methyl-thiazole-5-carbonyl]-amino)-propionic acid]	0.006 µM	
Cc1cc(C(=O)NC(C)c2cccc(O)c2)sc1C(=O)N[C@@H](CNC(=O)c1cccs1)C(=O)O (stereo partly drawn) [Example 37, (S)-2-({5-[1-(3-hydroxy-phenyl)-ethylcarbamoyl]-3-methyl-thiophen-2-carbonyl}-amino)-3-[(thiophene-2-carbonyl)-amino]-propionic acid]	0.027 µM	
